Results on five compounds are retold here after publication PMC10175918 (Communications Biology, 2023).

Assay in all cases: TGFα-shedding assay-based GPCR screening with chimeric Gα subunit proteins
Holding throughout (type): cell-based

The target of test [1] is T1, 348 GPCRs (Homo sapiens, UniProt P34995).
T1 construct: expressed in transfected cells; host or cells: HEK293A
T1 sequence (P34995 1-402): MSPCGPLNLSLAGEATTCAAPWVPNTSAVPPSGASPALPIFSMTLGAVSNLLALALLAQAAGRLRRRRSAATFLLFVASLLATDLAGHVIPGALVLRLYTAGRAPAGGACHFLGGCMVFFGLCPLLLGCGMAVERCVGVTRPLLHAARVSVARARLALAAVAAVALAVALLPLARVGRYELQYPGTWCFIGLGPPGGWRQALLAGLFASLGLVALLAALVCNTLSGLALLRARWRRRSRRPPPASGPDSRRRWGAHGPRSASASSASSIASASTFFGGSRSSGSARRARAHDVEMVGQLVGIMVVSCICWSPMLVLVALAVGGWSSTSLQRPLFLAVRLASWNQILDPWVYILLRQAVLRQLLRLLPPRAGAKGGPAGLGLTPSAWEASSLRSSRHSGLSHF
The conditions noted are these: 10µM, Favipiravir 100μM.

The target in test [2] is T2, 348 GPCRs (Homo sapiens, UniProt P55085).
T2 construct: expressed in transfected cells; host or cells: HEK293A
T2 sequence (P55085 26-397): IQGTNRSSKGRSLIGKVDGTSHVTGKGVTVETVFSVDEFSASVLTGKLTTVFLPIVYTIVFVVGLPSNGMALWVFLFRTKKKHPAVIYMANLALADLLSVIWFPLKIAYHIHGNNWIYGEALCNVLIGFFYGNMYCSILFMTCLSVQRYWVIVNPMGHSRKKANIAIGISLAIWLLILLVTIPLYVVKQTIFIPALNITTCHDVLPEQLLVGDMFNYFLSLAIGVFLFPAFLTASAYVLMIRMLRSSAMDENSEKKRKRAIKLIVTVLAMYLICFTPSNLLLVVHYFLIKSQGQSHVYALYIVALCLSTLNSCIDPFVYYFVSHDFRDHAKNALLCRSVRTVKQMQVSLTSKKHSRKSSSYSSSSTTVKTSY
The conditions noted are these: 10µM, Favipiravir 100μM.

Test [3] addresses T3, 348 GPCRs (Homo sapiens, UniProt Q8IZF2).
T3 construct: expressed in transfected cells; host or cells: HEK293A
T3 sequence (Q8IZF2 22-1346): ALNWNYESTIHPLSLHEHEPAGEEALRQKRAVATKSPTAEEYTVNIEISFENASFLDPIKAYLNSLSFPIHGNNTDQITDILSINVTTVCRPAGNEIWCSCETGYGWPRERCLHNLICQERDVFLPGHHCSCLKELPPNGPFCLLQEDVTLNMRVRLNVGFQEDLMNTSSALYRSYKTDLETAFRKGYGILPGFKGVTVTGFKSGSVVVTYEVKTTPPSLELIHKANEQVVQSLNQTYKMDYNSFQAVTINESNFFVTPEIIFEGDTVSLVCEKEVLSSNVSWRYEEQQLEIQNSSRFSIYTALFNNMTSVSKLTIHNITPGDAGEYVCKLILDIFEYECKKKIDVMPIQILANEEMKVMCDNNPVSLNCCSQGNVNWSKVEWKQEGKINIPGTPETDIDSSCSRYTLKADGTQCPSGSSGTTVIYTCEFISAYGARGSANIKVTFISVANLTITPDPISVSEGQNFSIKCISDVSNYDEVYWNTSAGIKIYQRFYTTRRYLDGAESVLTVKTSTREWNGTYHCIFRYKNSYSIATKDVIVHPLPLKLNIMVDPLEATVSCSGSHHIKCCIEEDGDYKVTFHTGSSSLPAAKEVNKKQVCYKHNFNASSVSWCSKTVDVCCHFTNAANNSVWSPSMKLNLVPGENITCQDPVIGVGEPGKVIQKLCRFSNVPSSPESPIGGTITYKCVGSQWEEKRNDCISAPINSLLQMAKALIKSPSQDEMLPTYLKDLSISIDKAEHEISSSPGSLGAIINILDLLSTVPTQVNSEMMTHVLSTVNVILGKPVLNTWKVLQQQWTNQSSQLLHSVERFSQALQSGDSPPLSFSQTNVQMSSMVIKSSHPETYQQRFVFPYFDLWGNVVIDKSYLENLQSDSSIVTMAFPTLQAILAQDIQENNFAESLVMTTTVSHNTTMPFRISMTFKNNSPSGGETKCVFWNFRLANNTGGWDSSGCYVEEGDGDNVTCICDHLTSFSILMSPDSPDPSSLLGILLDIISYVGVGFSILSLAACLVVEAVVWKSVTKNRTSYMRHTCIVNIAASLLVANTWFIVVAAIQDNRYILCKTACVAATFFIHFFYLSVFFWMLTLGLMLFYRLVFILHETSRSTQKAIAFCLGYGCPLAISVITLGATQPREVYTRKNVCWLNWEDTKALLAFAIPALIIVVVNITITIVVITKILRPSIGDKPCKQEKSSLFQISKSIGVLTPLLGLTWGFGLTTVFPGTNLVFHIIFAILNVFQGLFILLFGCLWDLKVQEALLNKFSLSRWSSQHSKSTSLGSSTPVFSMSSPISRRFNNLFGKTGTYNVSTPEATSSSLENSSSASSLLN

Test [4] concerns the target T4, 348 GPCRs (Homo sapiens, UniProt Q9HBW0).
T4 construct: expressed in transfected cells; host or cells: HEK293A
As to conditions: 10µM, Favipiravir 100μM.

The target of test [5] is T5, 348 GPCRs (Homo sapiens, UniProt Q9NYW4).
T5 construct: expressed in transfected cells; host or cells: HEK293A
T5 sequence (Q9NYW4 1-299): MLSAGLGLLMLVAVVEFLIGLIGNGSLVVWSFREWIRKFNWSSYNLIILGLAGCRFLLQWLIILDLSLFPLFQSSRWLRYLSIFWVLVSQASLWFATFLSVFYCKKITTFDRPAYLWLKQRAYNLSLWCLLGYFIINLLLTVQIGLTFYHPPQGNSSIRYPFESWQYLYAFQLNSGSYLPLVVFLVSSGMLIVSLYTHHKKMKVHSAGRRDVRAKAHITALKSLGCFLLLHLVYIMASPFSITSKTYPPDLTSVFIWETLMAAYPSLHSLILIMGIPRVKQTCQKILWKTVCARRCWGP
As to conditions: 10µM, Favipiravir 100μM.

Where [6] appears, read: EP1 (prostaglandin E receptor 1), read-out: % GPCR activation compared to TPA.
Where [7] appears, read: F2RL1 (coagulation factor II (thrombin) receptor-like 1), read-out: % GPCR activation compared to TPA.
Where [8] appears, read: GPCR GPR116 (G-protein-coupled receptor 116 (ADGRF5)), read-out: % GPCR activation compared to TPA.
Setting [9] is: LPAR2 (lysophosphatidic acid receptor 2), read-out: % GPCR activation compared to TPA.
Where [10] appears, read: TAS2R5 (taste receptor, type 2, member 5), read-out: % GPCR activation compared to TPA.
[11] abbreviates: read-out: % GPCR activation compared to TPA, EP1 (prostaglandin E receptor 1).
The mark [12] stands for this setting: read-out: % GPCR activation compared to TPA, F2RL1 (coagulation factor II (thrombin) receptor-like 1).
The mark [13] stands for this setting: read-out: % GPCR activation compared to TPA, GPCR GPR116 (G-protein-coupled receptor 116 (ADGRF5)).
Setting [14] is: read-out: % GPCR activation compared to TPA, LPAR2 (lysophosphatidic acid receptor 2).
The mark [15] stands for this setting: read-out: % GPCR activation compared to TPA, TAS2R5 (taste receptor, type 2, member 5).

Like-named read-outs stand apart in the source and are kept apart here.

T4 sequence (Q9HBW0 whole entry): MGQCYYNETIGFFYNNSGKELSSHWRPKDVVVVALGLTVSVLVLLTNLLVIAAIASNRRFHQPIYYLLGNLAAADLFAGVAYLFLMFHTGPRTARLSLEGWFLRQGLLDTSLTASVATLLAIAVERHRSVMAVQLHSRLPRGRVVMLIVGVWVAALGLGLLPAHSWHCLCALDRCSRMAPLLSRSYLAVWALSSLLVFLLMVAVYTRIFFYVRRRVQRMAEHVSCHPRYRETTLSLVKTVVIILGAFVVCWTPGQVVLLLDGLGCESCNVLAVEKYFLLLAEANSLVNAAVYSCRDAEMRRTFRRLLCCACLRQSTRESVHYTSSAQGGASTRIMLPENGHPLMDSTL

Take `CC(C)C(=O)OC[C@H]1O[C@@H](n2ccc(NO)nc2=O)[C@H](O)[C@@H]1O` [molnupiravir]: the activation at 100 µM in test [1] (setting [6]) is 0.204%; in test [5] (setting [10]) it was -0.247%. Further, the activation at 10 µM in test [2] (setting [7]) is -1.8%; in test [3] (setting [8]) it was -2.23%; in test [4] (setting [9]) it was 2.59%.
With `CC(C)OC(=O)[C@H](C)N[P@](=O)(OC[C@H]1O[C@@H](n2ccc(=O)[nH]c2=O)[C@](C)(F)[C@@H]1O)Oc1ccccc1` [sofosbuvir], the activation at 100 µM in test [1] (setting [11]) is -0.685%; in test [5] (setting [15]), -1.2%. Also, the activation at 10 µM in test [2] (setting [12]) is 0.0736%; in test [3] (setting [13]), -0.621%; in test [4] (setting [14]), 2.99%.
On to `N#C[C@@]1(c2ccc3c(N)ncnn23)O[C@H](CO)[C@@H](O)[C@H]1O` [GS441524], for which the results for the activation at 100 µM in test [1] (setting [6]) and in test [5] (setting [10]) were -1.84% and 0.212%, respectively. In addition, the activation at 10 µM is 0.132% in test [2] (setting [7]), -2.91% in test [3] (setting [8]) and -0.123% in test [4] (setting [9]).
Take `NC(=O)c1nc(F)cnc1O` [favipiravir, 6-fluoro-3-hydroxy-2-pyrazinecarboxamide]: the activation at 100 µM was -1.04% in test [1] (setting [6]); -1.79% in test [3] (GPCR GPR116 (G-protein-coupled receptor 116 (ADGRF5)), 100μM, read-out: % GPCR activation compared to TPA); 2.49% in test [5] (setting [10]). The activation at 10 µM in test [2] (setting [7]) was -2.7%; in test [4] (setting [9]) it was 1.47%.
For `CCC(CC)COC(=O)[C@H](C)N[P@](=O)(OC[C@H]1O[C@@](C#N)(c2ccc3c(N)ncnn23)[C@H](O)[C@@H]1O)Oc1ccccc1` [remdesivir], the activation at 100 µM in test [1] (setting [11]) turned out to be 0.488%; in test [5] (setting [15]) it was 3.92%. Besides, the activation at 10 µM is -1.25% in test [2] (setting [12]), -2.59% in test [3] (setting [13]) and 1.11% in test [4] (setting [14]).
